Reference: patent US11241031B2, “Rebaudioside A and stevioside with improved solubilities” (SWEET GREEN FIELDS USA, LLC, priority 2014, dated 2022)

What was measured:
[1] = Double-blind Flash sensory analysis of hydrolyzed D-glucose on RA/RB and RA97; design: species or system human; scale not given here; conditions: about 300 ppm in distilled H2O, A = 9.6 ppm, B = 4.8 ppm reacted glucose
Experimental: Experiment 2: Testing the Sensory Effects of Hydrolyzed D-glucose on RA/RB and RA97
1. To replicate the composition of a dried RA/RB hydrolyte treated with 0.625 mL of reagent, 5 g of RA/RB using a 61:39 ratio of RA97:RB was prepared, making sure to mix the sample thoroughly to ensure homogenization. (3.05 g RA97+1.95 g RB=5 g RA/RB blend). […] HPLC was used to confirm replication.
2. The amount of liquid D-glucose from each vial to be equivalent to 0.96 mg D-glucose from vial A/0.48 mg reacted D-glucose from vial B (representing the reaction product from use of 300 ppm of Stevia reacted with the highest and mid-level amount of 20% NaOH (0.625 mL and 0.3215 mL respectively) would be:
3. The following solution sets were created:
i. 299.04 mg RA/RB blend+668.5µL D-Glucose solution vial A+distilled H2O to a final volume of 1,000 mL (299.04 ppm RA/RB+9.6 ppm reacted glucose).
ii. 299.52 mg RA/RB blend+668.5µL D-Glucose solution vial B+distilled H2O to a final volume of 1,000 mL (299.52 ppm RA/RB+4.8 ppm reacted glucose).
iii. 300 mg RA/RB blend+distilled H2O to a final volume of 1,000 mL (300 ppm RA/RB).
i. 299.04 mg RA97+668.5µL D-Glucose solution vial A+distilled H2O to a final volume of 1,000 mL (299.04 ppm RA97+9.6 ppm reacted glucose).
ii. 299.52 mg RA97+668.5µL D-Glucose solution vial B+distilled H2O to a final volume of 1,000 mL ([…]+4.8 ppm reacted glucose).
iii. 300 mg RA97+distilled H2O to a final volume of 1,000 mL (300 ppm RA97).
Each set was tasted using double-blind Flash sensory analysis (number of analysts=2).

[2] = cited from earlier work
[3] = Taste profile (0-5 scale): different salt conditions (Example 11); design: species or system human; conditions: control as named at the place
Experimental: To evaluate the effect of different salt conditions on the resulting taste profiles relative to a control sample (i.e., 059 containing no salt), raw materials were mixed with pure water as indicated in Tables 28-31 to obtain the aqueous solutions as indicated. Taste profiles were determined as described above in Examples 9 and 10.

[4] = Evaluation of other sweeteners and inorganic salts on the taste profile (Example 7); design: species or system human; conditions: for taste profile results, potassium chloride vs sodium chloride: Test 1, salt as component of the composition
Description: Evaluation of the Effects of Other Sweeteners and Inorganic Salts on the Taste Profile of the Composition
Test 1: Evaluation of Compositions Comprising Sodium Chloride and Potassium Chloride
Test 2: Evaluation of Compositions Comprising Various Sweeteners

[5] = Taste profiling of sample formulations (Example 4, Test 1 and Test 2); design: species or system human; conditions: Test 2; added to RA/RB solution
Experimental: The samples in lines 2, 4, and 8 of FIG. 1 (0.0625, 0.25, and 0.5625 20% NaOH added) were prepared by mixing raw materials and then formulated in to solutions.
Mixed product: prepared by simply mixing raw materials according to the ratio of Lot #15-0100.

[6] = Taste profile (0-5 scale): adding additional steviol glycosides (Example 12); design: species or system human; conditions: added SG at 1.9 wt %; control without any added SGs
Experimental: To evaluate the effect of adding additional SGs on taste profiles relative to a control sample, raw materials were mixed with pure water as indicated in Table 32 to obtain the aqueous solutions as indicated. Taste profiles were determined as described above in Examples 9 and 10.

Molecule: C=C1C[C@@]23CC[C@H]4[C@@](C)(CCC[C@@]4(C)C(=O)O[C@@H]4O[C@H](CO)[C@@H](O)[C@H](O)[C@H]4O)[C@@H]2CC[C@]1(O[C@@H]1O[C@H](CO)[C@@H](O)[C@H](O[C@@H]2O[C@H](CO)[C@@H](O)[C@H](O)[C@H]2O)[C@H]1O[C@@H]1O[C@H](CO)[C@@H](O)[C@H](O)[C@H]1O)C3 [RA97, Rebaudioside A]
- T#10 Bitter [1]: 2.3
- T#10 Linger [1]: 5
- T#10 Ov. Like [1]: 6
- T#10 Sugar Like Body [1]: 3.2
- T#10 Sweetness [1]: 5.8
- T#11 Bitter [1]: 5
- T#11 Dry [1]: 5.9
- T#11 Linger [1]: 5
- T#11 Ov. Like [1]: 6.5
- T#11 Sugar Like Body [1]: 4.4
- T#11 Sweetness [1]: 6.8
- solubility ([2]; in water at 25° C.): 0.8%

Molecule: [Ca+2].[Cl-].[Cl-] [calcium chloride]
- taste profile relative to the control sample [3]: not significantly affected

Molecule: O=C(CO)[C@@H](O)[C@H](O)[C@H](O)CO [fructose]
- effect of sweetener on taste profile relative to glucose ([4]; Test 2, sweetener as component of the composition): slightly lower than glucose

Molecule: O=C[C@H](O)[C@@H](O)[C@H](O)[C@H](O)CO [glucose]
- effect of added component on the taste profile [5]: improved the “sugar like” profile

Molecule: O=S(=O)([O-])[O-].[Mg+2] [magnesium sulfate]
- taste profile relative to the control sample [3]: not significantly affected

Molecule: O=C([O-])[O-].[K+].[K+] [potassium carbonate]
- taste profile relative to the control sample [3]: not significantly affected

Molecule: [Cl-].[K+] [potassium chloride]
- taste profile results, potassium chloride vs sodium chloride [4]: Substantially same results

Molecule: [Cl-].[Na+] [sodium chloride]
- effect of added component on the taste profile [5]: improved the “aftertaste” profile
- taste profile results, potassium chloride vs sodium chloride [4]: Substantially same results

Molecule: C=C1C[C@@]23CC[C@H]4[C@@](C)(CCC[C@@]4(C)C(=O)O)[C@@H]2CC[C@]1(O[C@@H]1O[C@H](CO)[C@@H](O)[C@H](O)[C@H]1O[C@@H]1O[C@H](CO)[C@@H](O)[C@H](O)[C@H]1O)C3 [steviolbioside]
- taste profile relative to control sample 10-1 [6]: not significantly affected

Molecule: C=C1C[C@@]23CC[C@H]4[C@@](C)(CCC[C@@]4(C)C(=O)O[C@@H]4O[C@H](CO)[C@@H](O)[C@H](O)[C@H]4O)[C@@H]2CC[C@]1(O[C@@H]1O[C@H](CO)[C@@H](O)[C@H](O)[C@H]1O[C@@H]1O[C@H](CO)[C@@H](O)[C@H](O)[C@H]1O)C3 [stevioside]
- taste profile relative to control sample 10-1 [6]: not significantly affected
- solubility / dissolution (in words) ([2]; powder in water at 25° C.): very low solubility

Molecule: rebaudioside C [Reb-C]
- taste profile relative to control sample 10-1 [6]: not significantly affected
